pIC50: −log10 of the molar value. Values after ≈ are worked out from the molar mass of the structure shown.
What was measured:
[1] = system: Aspergillus niger; assay: MIC determination, series dilution test (microtiter plate) / agar dilution method; type: cell-based
Experimental: (§1) The evidence of the antimicrobial action against body perspiration odor bacteria of the substances synthesized according to the examples was implemented with the aid of the agar dilution method according to DIN 58 940/ICS and DIN 58 944/ICS. Petri dishes of 5.5 cm in diameter were filled with 8.7 ml freshly produced Mueller-Hinton-agar or Wilkins-Chalgren-agar bouillon kept liquid at 50° C., supplemented with 10 g agar-agar/liter) to which the various concentrations of the thinned samples were added in 3.3% by volume=0.3 ml.
2.6 ml of the 3.3% samples were diluted with ethanol (96%). […]
(§2) All the test germ suspensions were diluted again with sterile bouillon 1:10 and the germ count thereof determined in the surface method per spiralometer (results: see Table 1).
(§3) The lowest active ingredient concentration was regarded as the MIC (minimal inhibition concentration), at which no growth is macroscopically present. Minimal, hardly visible growth or a few small individual colonies were evaluated as inhibition.
The minimum inhibition concentration (MIC) of the compound according to the invention, was determined against various cosmetically relevant germs in the series dilution test (H. Brandis, G. Pulverer: Lehrbuch der Medizinischen Mikrobiologie, 6th revised edition, Gustav Fischer Verlag Stuttgart, 1988; page 200 et seq.). […]

[2] = system: Staphylococcus aureus; assay: as above; type: cell-based; details: ATCC6538; Staphylococcus aureus ATCC 6538; 16 hours incubation, clouding at 620 nm
Experimental: as §1
(§4) 2.6 ml of the 3.3% samples were diluted with ethanol (96%). By continuous 2:1 dilution with ethanol (96%) the further test concentrations of the respective series of dilution, which were placed in the form of geometric rows, were produced.
(§5) By further dilution with the test agar (0.3 ml sample or corresponding dilutions+8.7 ml agar), 30 times lower end concentrations were achieved (corresponds to a starting concentration of 1,100 ppm in each case). The concentrations disclosed below relate to the pure substance and are converted into ppm. […]
as §2, §3
(§6) The minimum inhibition concentration (MIC) of the compound according to the invention, was determined against various cosmetically relevant germs in the series dilution test (H. Brandis, G. Pulverer: Lehrbuch der Medizinischen Mikrobiologie, 6th revised edition, Gustav Fischer Verlag Stuttgart, 1988; page 200 et seq.). The test was transferred to the microtiter plate format and the concentration was determined as the MIC value, in which after 16 hours of incubation, at the wavelength of 620 nm, no significant rise in the clouding was observed relative to the controls.

[3] = system: Corynebacterium xerosis; assay: as above; type: cell-based
Experimental: as §1, §4, §5, §2, §3, §6

[4] = ABTS assay, cell-free in vitro test of antioxidant capacity; type: biochemical; parameters: Mean antioxidant capacity (AOX): unit not given here; details: for pIC50: ABTS decoloration at 734 nm, read-out: IC50 (antioxidant concentration in which 50% of the cationic radicals are reduced); for pIC50 / Mean antioxidant capacity (AOX): mean of two independent tests
Source text: In order to check to what extent L-menthyl-N-(2-hydroxyphenyl)carbamate also has antioxidant potential, the substance was investigated with the aid of the ABTS assay.
The ABTS assay is a cell-free in vitro test for evaluating the antioxidant capacity (literature: Re R, Pellegrini N, Proteggente A, Pannala A, Yang M, Rice-Evans C. 1999. “Antioxidant activity applying an improved ABTS radical cation decolorization assay”; Free Radic. Bio. Med. 26: 1231-7). The assay uses the inherent color of a solution produced with the cationic radical 2,2′-azinobis(3-ethylbenzothiazoline 6-sulfonic acid) (ABTS+) and potassium persulfate, which solution is decolored by the addition of antioxidants (reduction of the cationic radical). This decoloration can be measured photometrically at 734 nm.
The test is carried out in 96-well microtiter plates. The antioxidant capacity is expressed in IC50 values (antioxidant concentration in which 50% of the cationic radicals are reduced). All the ABTS test results result from two independent tests and are shown as mean values with associated mean value deviation.

## CC(C)[C@@H]1CC[C@@H](C)C[C@H]1OC(=O)Nc1ccccc1O [L-menthyl-N-(2-hydroxyphenyl)carbamate]
[1]; ATCC16404, Aspergillus niger ATCC 16404, 16 hours incubation, clouding at 620 nm
  MIC: > 1000 µg/mL
[1]; mould fungi such as Aspergillus niger
  activity relative to mould fungi (in words): inactive
[2]
  MIC: 8 µg/mL (≈ 27.5 µM)
[3]; ATCC7711, Corynebacterium xerosis ATCC 7711, 16 hours incubation, clouding at 620 nm
  MIC: 8 µg/mL (≈ 27.5 µM)
[3]; gram-positive bacteria such as corynebacterium xerosis, very small concentrations
  inhibition of the growth (in words): clear inhibition of the growth
[4]
  pIC50: 4.72
[4]; ABTS investigations
  antioxidant capacity compared with reference alpha-tocopherol (in words): comparable with the antioxidant capacity of the reference substance alpha-tocopherol
[4]; concentration 0.001 mM
  Mean antioxidant capacity (AOX): 3.58
[4]; concentration 0.0025 mM
  Mean antioxidant capacity (AOX): 8.84
[4]; concentration 0.005 mM
  Mean antioxidant capacity (AOX): 17.50
[4]; concentration 0.025 mM
  Mean antioxidant capacity (AOX): 63.15
[4]; concentration 0.05 mM
  Mean antioxidant capacity (AOX): 96.56

## Cc1c(C)c2c(c(C)c1O)CC[C@@](C)(CCC[C@H](C)CCC[C@H](C)CCCC(C)C)O2 [alpha-tocopherol, reference compound]
[4]
  pIC50: 4.60
[4]; concentration 0.001 mM
  Mean antioxidant capacity (AOX): 0.56
[4]; concentration 0.0025 mM
  Mean antioxidant capacity (AOX): 4.16
[4]; concentration 0.005 mM
  Mean antioxidant capacity (AOX): 10.83
[4]; concentration 0.025 mM
  Mean antioxidant capacity (AOX): 51.38
[4]; concentration 0.05 mM
  Mean antioxidant capacity (AOX): 94.88
